US20250066290A1, “DHODH INHIBITORS CONTAINING A CARBOXYLIC ACID BIOISOSTERE” (IMMUNIC AG, priority 2021, published 2025)
In brackets after ≈: the same amount, converted by molar mass. Read-outs that look alike come from different tables or passages of the source.

Columns and labels:
[1] = molecular target: N-terminally truncated recombinant hDHODH enzyme (Homo sapiens, UniProt Q02127); assay: biochemical; assay type: biochemical
In short: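 DCIP reduction followed at 600 nm for 2 min, with 60 μM 2,6-dichloroindophenol, 50 μM decylubiquinone and 100 μM dihydroorotate (reaction started with dihydroorotate). Buffer 50 mM TrisHCl, 150 mM KCl, 0.1% Triton X-100, pH 8.0, 30° C. IC50 from at least six compound concentrations.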

SARS-CoV-2 = SARS-CoV-2 viral replication (YFP) assay; assay type: cell-based; settings: Severe acute respiratory syndrome coronavirus 2, read-out: EC50 range
[2] = Mouse pharmacokinetics, female, deuteration matched pair analysis; assay type: in vivo, mice (C57BL/6J); settings: for AUC(0-t) / Cmax / half-life: C57BL/6J, mouse, in vivo; for AUC(0-t) / Cmax / F: female mice; for AUC(0-t): 0 to 8 h; for Cmax: 5 mg/kg oral, 1 mg/kg intravenous cassette; for F: bioavailability; for half-life: female
Description: In another matched pair analysis the benefit of deuteration of the N-methoxyacetamide moiety was tested: the pharmacokinetic properties of the compounds were evaluated in 3 female mice (C57BL/6J, 8 week old) after oral or intravenous cassette dosing to assess the oral bioavailability. Dose was 5 mg/kg (oral) and 1 mg/kg (intravenous), application volume was 5 mL/kg (oral) and 2 mL/kg (intravenous), vehicle was 5% solutol, 95% NaCl solution (at 0.9% saline concentration) for oral and 5% solutol, 5% ethanol, 90% NaCl solution (at 0.9% saline concentration) for intravenous application. At each designated time point (0.25, 0.5, 1, 2, 4 and 8 h after dosing for oral; 0.083, 0.25, 0.5, 1, 4 and 8 h after dosing for intravenous), 20 μL whole blood were collected from the tail vein into Li-heparin tubes, frozen on dry ice within 1-2 minutes of sampling and stored at −20° C. until processed for LC-MS analysis.

[3] = molecular target: human URAT1 uptake transporter (Homo sapiens (Human), UniProt Q96S37); assay: Human URAT1 uptake transporter assay (MDCKII-URAT1-LV, SOLVO); assay type: cell-based; settings: 10 μM compound, 20 μM uric acid probe substrate
Description: In the human URAT1 uptake transporter assay (host cell line: MDCKII), the accumulation of the probe substrate in the presence of a DHODH inhibitor (at a concentration of 10 μM) into cells was measured. The assay was executed at SOLVO with catalogue number MDCKII-URAT1-LV. 20 μM uric acid served as probe substrate. Reference inhibitor was benzbromarone at a concentration of 300 μM, which served as internal control.

SARS-CoV-2 d6-YFP = assay: Combinatorial drug assessment with EIDD-1931 by viral replication inhibition assay; assay type: cell-based
[4] = Mouse pharmacokinetics, male and female, cassette dosing; assay type: in vivo, mice (C57BL/6J); settings: for AUC / Cmax / half-life: C57BL/6J, mouse, in vivo; for AUC: 0 to 24 h; for Cmax: 5 mg/kg oral, 1 mg/kg intravenous cassette; for F: bioavailability
Description: The pharmacokinetics of the compounds of the present invention was evaluated in 3 male and 3 female mice (C57BL/6J, 8 week old) after oral or intravenous cassette dosing to assess the oral bioavailability. Dose was 5 mg/kg (oral) and 1 mg/kg (intravenous), application volume was 5 mL/kg (oral) and 0.5 mL/kg (intravenous), vehicle was 5% solutol, 95% NaCl solution (at 0.9% saline concentration) for oral and 5% solutol, 5% ethanol, 90% NaCl solution (at 0.9% saline concentration) for intravenous. At each designated time point (0.5, 1, 2, 4, 8 and 24 h after dosing), 20 μL whole blood were collected from the tail vein into Li-heparin tubes, frozen on dry ice within 1-2 minutes of sampling and stored at −20° C. until processed for LC-MS analysis.

[5] = Kinetic aqueous solubility in PBS at pH 7.4; settings: pH 7.4, aqueous buffer, kinetic from dmso stock
[6] = Partition coefficient log D (n-octanol/PBS at pH 7.4); assay type: physicochemical; settings: n-octanol/PBS at pH 7.4; read-out: logD
Description: The total amount of compound was determined as the peak area of the principal peak in a calibration standard (100 μM) containing organic solvent (MeOH/water, 60/40 v/v). The amount of compound in buffer was determined as the combined, volume-corrected and weighted areas of the corresponding peaks in the aqueous phases of three organic-aqueous samples of different composition. An automated weighting system was used to ensure the preferred use of raw data from those samples with well quantifiable peak signals. The amount of compound in organic was calculated by subtraction.
Subsequently, the partition coefficient (log D, n-octanol/PBS at pH 7.4) was calculated as the Log10 of the amount of compound in the organic phase divided by the amount of compound in the aqueous phase (Eurofins Discovery Services Item #417).

[7] = Metabolic stability in rat liver microsomes; settings: SD
From the text: (§1) The metabolism was monitored by HPLC-MS/MS. Verapamil served as positive control.

[8] = Metabolic stability in human liver microsomes
From the text: as §1

[9] = Rat pharmacokinetics, oral cassette dosing; design: species or system Sprague Dawley rats; settings: Sprague Dawley, in vivo; for AUC(0-t) / Cmax / AUC(0-inf): female rats, oral cassette; for AUC(0-t): 0 to 8 h; for Cmax: blood; for AUC(0-inf): calculated to infinity; for half-life: female, po
Description: The pharmacokinetics of compounds of the present invention was evaluated in 3 female Sprague Dawley rats (8 week old) after oral cassette dosing (vehicle: 5% solutol/95% NaCl solution (at 0.9% saline concentration; application volume: 5 mL/kg) to asses the exposure of the test items. At each designated time point (0.25, 0.5, 1, 2, 4 and 8 h after dosing), 20 μL blood were collected from the tail vein into Li-heparin tubes, cooled on ice and stored at −20° C. until processed for LC-MS analysis. The obtained data is as follows: […]

[10] = high vidofludimus doses; cited from earlier work
[11] = human DHODH assay, read-out: IC50 range

Chain of human URAT1 uptake transporter (Q96S37 whole entry): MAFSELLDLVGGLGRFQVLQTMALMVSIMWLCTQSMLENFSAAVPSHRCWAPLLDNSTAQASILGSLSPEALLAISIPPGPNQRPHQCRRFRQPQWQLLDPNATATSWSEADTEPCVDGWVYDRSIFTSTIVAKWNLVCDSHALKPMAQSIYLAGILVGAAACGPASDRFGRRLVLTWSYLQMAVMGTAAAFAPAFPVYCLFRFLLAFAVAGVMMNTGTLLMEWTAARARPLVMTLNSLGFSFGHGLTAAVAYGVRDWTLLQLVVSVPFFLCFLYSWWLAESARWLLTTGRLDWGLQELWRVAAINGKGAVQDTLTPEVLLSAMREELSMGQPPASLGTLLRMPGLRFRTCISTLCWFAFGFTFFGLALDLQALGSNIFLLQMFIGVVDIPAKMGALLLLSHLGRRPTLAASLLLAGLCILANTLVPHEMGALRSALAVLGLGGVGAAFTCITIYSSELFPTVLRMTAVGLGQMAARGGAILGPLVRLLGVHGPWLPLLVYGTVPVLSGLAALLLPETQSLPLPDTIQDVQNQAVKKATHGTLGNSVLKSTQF
Chain of N-terminally truncated recombinant hDHODH enzyme (Q02127 whole entry, looked up, the tested form may be a part): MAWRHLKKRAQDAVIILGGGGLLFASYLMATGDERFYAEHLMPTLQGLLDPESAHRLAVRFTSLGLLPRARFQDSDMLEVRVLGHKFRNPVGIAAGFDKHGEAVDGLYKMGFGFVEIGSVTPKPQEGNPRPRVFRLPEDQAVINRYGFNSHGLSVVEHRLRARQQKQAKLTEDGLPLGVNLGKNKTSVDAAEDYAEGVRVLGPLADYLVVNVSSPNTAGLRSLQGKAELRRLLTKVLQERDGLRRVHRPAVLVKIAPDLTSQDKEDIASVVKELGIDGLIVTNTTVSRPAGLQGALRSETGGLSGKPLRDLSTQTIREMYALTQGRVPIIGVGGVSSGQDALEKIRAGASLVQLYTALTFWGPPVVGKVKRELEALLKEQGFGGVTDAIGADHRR

Compound: [2H]C([2H])([2H])ONC(=O)c1sccc1C(=O)Nc1c(F)c(F)c(-c2cccc(OC([2H])([2H])[2H])c2)c(F)c1F [9/6]
- IC50 [1, 11]: < 100 nM
- EC50 (SARS-CoV-2): < 1000 nM
- AUC(0-t) [2]: 25000 ng·h/mL
- Cmax [2]: 6700 ng/mL
- F [2]: 76%
- half-life [2]: 2.5 h

Compound: CS(=O)(=O)NC(=O)C1=C(C(=O)Nc2c(F)c(F)c(-c3cccc(OC(F)(F)F)c3)c(F)c2F)CCC1 [Example 1, N^1-(Methylsulfonyl)-N^2-(2,3,5,6-tetrafluoro-3′-(trifluoromethoxy)-[1,1′-biphenyl]-4-yl)cyclopent-1-ene-1,2-dicarboxamide]
- IC50 [1, 11]: < 100 nM
- human URAT1 uptake transporter stimulation @ 10 μM [3]: 28%
- EC50 (SARS-CoV-2): 10000 to 25000 nM
- antiviral effect in combination with EIDD-1931 (SARS-CoV-2 d6-YFP): synergistic antiviral effect
- antiviral effect in combination with EIDD-1931 (SARS-CoV-2 d6-YFP; listed as Compound 1): synergistic antiviral effects
- AUC ([4]; female mice): 7350 ng·h/mL
- Cmax ([4]; female mice): 1320 ng/mL
- AUC ([4]; male mice): 3200 ng·h/mL
- Cmax ([4]; male mice): 754 ng/mL
- F ([4]; female mice): ♀ 217%
- half-life ([4]; female): 2.8 h
- F ([4]; male mice): ♂ 49%
- half-life ([4]; male): 2.9 h
- solubility [5]: 237 µM (≈ 128 µg/mL)

Compound: [2H]C([2H])([2H])Oc1cccc(-c2cc(F)c(NC(=O)C3=C(C(=O)NS(C)(=O)=O)CCC3)c(F)c2)c1 [Example 1/1]
- human URAT1 uptake transporter stimulation @ 10 μM [3]: <20%
- logD [6]: 0.9
- EC50 (SARS-CoV-2): 25000 to 50000 nM
- solubility [5]: 227 µM (≈ 103 µg/mL)

Compound: [2H]C([2H])([2H])Oc1cccc(-c2c(F)c(F)c(NC(=O)C3=C(C(=O)NS(C)(=O)=O)CCC3)c(F)c2F)c1 [Example 1/7]
- IC50 [1, 11]: < 100 nM
- EC50 (SARS-CoV-2): < 10000 nM
- microsomal CLint ([7]; female): 30.5 µL/min/mg
- microsomal CLint ([7]; male): 20 µL/min/mg
- microsomal CLint ([8]; female): 4.01 µL/min/mg
- microsomal CLint ([8]; male): 1.32 µL/min/mg

Compound: COc1cccc(-c2c(F)c(F)c(NC(=O)C3=C(C(=O)NS(C)(=O)=O)CCC3)c(F)c2F)c1 [Example 1/13]
- IC50 [1, 11]: < 100 nM
- microsomal CLint ([7]; female): 35.4 µL/min/mg
- microsomal CLint ([7]; male): 25.5 µL/min/mg
- microsomal CLint ([8]; female): 10.3 µL/min/mg
- microsomal CLint ([8]; male): 14.4 µL/min/mg

Compound: NS(=O)(=O)NC(=O)C1=C(C(=O)Nc2c(F)c(F)c(-c3cccc(OC(F)(F)F)c3)c(F)c2F)CCC1 [Example 2, N^1-Sulfamoyl-N^2-(2,3,5,6-tetrafluoro-3′-(trifluoromethoxy)-[1,1′-biphenyl]-4-yl)cyclopent-1-ene-1,2-dicarboxamide]
- IC50 [1, 11]: < 100 nM
- human URAT1 uptake transporter stimulation @ 10 μM [3]: 72%
- EC50 (SARS-CoV-2): 10000 to 25000 nM

Compound: [2H]C([2H])([2H])Oc1cccc(-c2cc(F)c(NC(=O)C3=C(C(=O)NS(N)(=O)=O)CCC3)c(F)c2)c1 [Example 2/1]
- IC50 [1, 11]: < 100 nM
- human URAT1 uptake transporter stimulation @ 10 μM [3]: 22%
- logD [6]: 0.5
- EC50 (SARS-CoV-2): > 50000 nM
- AUC ([4]; female mice): 8610 ng·h/mL
- Cmax ([4]; female mice): 2280 ng/mL
- AUC ([4]; male mice): 3070 ng·h/mL
- Cmax ([4]; male mice): 1500 ng/mL
- F ([4]; female mice): ♀ 144%
- half-life ([4]; female): 2.4 h
- F ([4]; male mice): ♂ 60%
- half-life ([4]; male): 3.1 h
- solubility [5]: 235 µM (≈ 107 µg/mL)

Compound: O=C(Nc1c(F)c(F)c(-c2cccc(OC(F)(F)F)c2)c(F)c1F)C1=C(c2nn[nH]n2)CCC1 [Example 3, N-(2,3,5,6-Tetrafluoro-3′-(trifluoromethoxy)-[1,1′-biphenyl]-4-yl)-2-(2H-tetrazol-5-yl)cyclopent-1-ene-1-carboxamide]
- IC50 [1]: 100 to 1000 nM
- human URAT1 uptake transporter stimulation @ 10 μM [3]: <20%
- EC50 (SARS-CoV-2): < 10000 nM
- solubility [5]: 207 µM (≈ 101 µg/mL)

Compound: [2H]C([2H])([2H])Oc1cccc(-c2c(F)c(F)c(NC(=O)C3=C(C(=O)NOC)COC3)c(F)c2F)c1 [Example 5/4]
- IC50 [1, 11]: < 100 nM
- EC50 (SARS-CoV-2): < 1000 nM
- AUC(0-t) [2]: 106000 ng·h/mL
- Cmax [2]: 18000 ng/mL
- F [2]: 39%
- half-life [2]: > 8 h
- AUC(0-t) [9]: 125 µM·h
- Cmax [9]: 21 µM
- AUC(0-inf) [9]: 271 µM·h
- half-life [9]: 7.9 h

Compound: [2H]C([2H])([2H])ONC(=O)C1=C(C(=O)Nc2c(F)c(F)c(-c3cccc(OC([2H])([2H])[2H])c3)c(F)c2F)COC1 [Example 5/5]
- IC50 [1, 11]: < 100 nM
- EC50 (SARS-CoV-2): < 1000 nM
- AUC(0-t) [2]: 165000 ng·h/mL
- Cmax [2]: 70000 ng/mL
- F [2]: 56%
- half-life [2]: > 8 h
- AUC(0-t) [9]: 113 µM·h
- Cmax [9]: 19 µM
- AUC(0-inf) [9]: 252 µM·h
- half-life [9]: 8.4 h

Compound: CONC(=O)C1=C(C(=O)Nc2c(F)c(F)c(-c3cccc(OC)c3)c(F)c2F)COC1 [Example 5/9]
- IC50 [1, 11]: < 100 nM
- AUC(0-t) [9]: 91 µM·h
- Cmax [9]: 17 µM
- AUC(0-inf) [9]: 185 µM·h
- half-life [9]: 6.6 h

Compound: [2H]C([2H])([2H])Oc1cccc(-c2cc(F)c(NC(=O)c3ccsc3C(=O)NOCCO)c(F)c2)c1 [Example 9/1]
- IC50 [1, 11]: < 100 nM
- EC50 (SARS-CoV-2): < 1000 nM
- microsomal CLint ([7]; female): 52.8 µL/min/mg
- microsomal CLint ([7]; male): 162 µL/min/mg
- microsomal CLint ([8]; female): 40.4 µL/min/mg
- microsomal CLint ([8]; male): 67.2 µL/min/mg

Compound: CONC(=O)c1sccc1C(=O)Nc1c(F)cc(-c2cccc(OC)c2)cc1F [Example 9/9]
- IC50 [1, 11]: < 100 nM
- microsomal CLint ([7]; female): 69.3 µL/min/mg
- microsomal CLint ([7]; male): 192 µL/min/mg
- microsomal CLint ([8]; female): 66.1 µL/min/mg
- microsomal CLint ([8]; male): 93.9 µL/min/mg

Compound: [2H]C([2H])([2H])Oc1cccc(-c2c(F)c(F)c(NC(=O)c3sc(C)cc3C(=O)NOC)c(F)c2F)c1 [Example 17-2, N3-methoxy-5-methyl-N2-(2,3,5,6-tetrafluoro-3′-(methoxy-d3)-[1,1′-biphenyl]-4-yl)thiophene-2,3-dicarboxamide]
- IC50 [1, 11]: < 100 nM
- EC50 (SARS-CoV-2): < 1000 nM

Compound: COc1cccc(-c2ccc(NC(=O)C3=C(C(=O)O)CCC3)c(F)c2)c1 [vidofludimus, 2-((3-fluoro-3′-methoxy-[1,1′-biphenyl]-4-yl)carbamoyl)cyclopent-1-ene-1-carboxylic acid]
- blood uric acid levels [10]: decrease
- urine red blood cell count [10]: increase
